Laboratory results: ChEMBL document CHEMBL3112480, “γ-Alkylidene-γ-lactones and isobutylpyrrol-2(5H)-ones analogues to rubrolides as inhibitors of biofilm formation by gram-positive and gram-negative bacteria” (Bioorg Med Chem Lett, 2014)
Values after ≈ are worked out from the molar mass of the structure shown.

Legend:
Streptococcus mutans [1] = experiment: Antibacterial activity against Streptococcus mutans ATCC 25175 assessed as effect on planktonic growth at 0.17 ug/ml after 20 hrs relative to control; type: functional
[2] = system: Staphylococcus epidermidis; experiment: Antibacterial activity against Staphylococcus epidermidis ATCC 35547 assessed as effect on planktonic growth at 0.68 ug/ml after 20 hrs relative to control; type: functional
Staphylococcus aureus [3] = experiment: Antibacterial activity against Staphylococcus aureus ATCC 25923 assessed as effect on planktonic growth at 21.9 ug/ml after 20 hrs relative to control; type: functional
Streptococcus mutans [4] = experiment: Antibacterial activity against Streptococcus mutans ATCC 25175 assessed as effect on planktonic growth at 87.5 ug/ml after 20 hrs relative to control; type: functional
Pseudomonas aeruginosa [5] = experiment: Antibacterial activity against Pseudomonas aeruginosa ATCC 27853 assessed as effect on planktonic growth at 43.8 ug/ml after 20 hrs relative to control; type: functional
Pseudomonas aeruginosa [6] = experiment: Antibacterial activity against Pseudomonas aeruginosa ATCC 27853 assessed as effect on planktonic growth at 87.5 ug/ml after 20 hrs relative to control; type: functional
Pseudomonas aeruginosa [7] = experiment: Antibacterial activity against Pseudomonas aeruginosa ATCC 27853 assessed as effect on planktonic growth at 10.9 ug/ml after 20 hrs relative to control; type: functional
[8] = system: Staphylococcus epidermidis; experiment: Antibacterial activity against Staphylococcus epidermidis ATCC 35547 assessed as effect on planktonic growth at 5.5 ug/ml after 20 hrs relative to control; type: functional
Staphylococcus aureus [9] = experiment: Antibacterial activity against Staphylococcus aureus ATCC 25923 assessed as effect on planktonic growth at 10.9 ug/ml after 20 hrs relative to control; type: functional
[10] = system: Staphylococcus epidermidis; experiment: Antibacterial activity against Staphylococcus epidermidis ATCC 35547 assessed as effect on planktonic growth at 1.37 ug/ml after 20 hrs relative to control; type: functional
Pseudomonas aeruginosa [11] = experiment: Antibacterial activity against Pseudomonas aeruginosa ATCC 27853 assessed as effect on planktonic growth at 21.9 ug/ml after 20 hrs relative to control; type: functional
Streptococcus mutans [12] = experiment: Antibacterial activity against Streptococcus mutans ATCC 25175 assessed as effect on planktonic growth at 1.37 ug/ml after 20 hrs relative to control; type: functional
Streptococcus mutans [13] = experiment: Antibacterial activity against Streptococcus mutans ATCC 25175 assessed as effect on planktonic growth at 0.34 ug/ml after 20 hrs relative to control; type: functional
Pseudomonas aeruginosa [14] = experiment: Antibacterial activity against Pseudomonas aeruginosa ATCC 27853 assessed as inhibition of biofilm formation after 20 hrs by crystal-violet staining method; type: functional, organism-based; conditions: for IC50: ATCC 27853, 20 h
Staphylococcus aureus [15] = experiment: Antibacterial activity against Staphylococcus aureus ATCC 25923 assessed as effect on planktonic growth at 0.17 ug/ml after 20 hrs relative to control; type: functional
Streptococcus mutans [16] = experiment: Antibacterial activity against Streptococcus mutans ATCC 25175 assessed as effect on planktonic growth at 2.73 ug/ml after 20 hrs relative to control; type: functional
Pseudomonas aeruginosa [17] = experiment: Antibacterial activity against Pseudomonas aeruginosa ATCC 27853 assessed as effect on planktonic growth at 0.68 ug/ml after 20 hrs relative to control; type: functional
[18] = system: Staphylococcus epidermidis; experiment: Antibacterial activity against Staphylococcus epidermidis ATCC 35547 assessed as effect on planktonic growth at 2.73 ug/ml after 20 hrs relative to control; type: functional
Pseudomonas aeruginosa [19] = experiment: Antibacterial activity against Pseudomonas aeruginosa ATCC 27853 assessed as effect on planktonic growth at 0.34 ug/ml after 20 hrs relative to control; type: functional
Pseudomonas aeruginosa [20] = experiment: Antibacterial activity against Pseudomonas aeruginosa ATCC 27853 assessed as effect on planktonic growth at 5.5 ug/ml after 20 hrs relative to control; type: functional
Pseudomonas aeruginosa [21] = experiment: Antibacterial activity against Pseudomonas aeruginosa ATCC 27853 assessed as effect on planktonic growth at 1.37 ug/ml after 20 hrs relative to control; type: functional
Staphylococcus aureus [22] = experiment: Antibacterial activity against Staphylococcus aureus ATCC 25923 assessed as effect on planktonic growth at 1.37 ug/ml after 20 hrs relative to control; type: functional
Staphylococcus aureus [23] = experiment: Antibacterial activity against Staphylococcus aureus ATCC 25923 assessed as effect on planktonic growth at 5.5 ug/ml after 20 hrs relative to control; type: functional
Staphylococcus aureus [24] = experiment: Antibacterial activity against Staphylococcus aureus ATCC 25923 assessed as effect on planktonic growth at 0.34 ug/ml after 20 hrs relative to control; type: functional
Pseudomonas aeruginosa [25] = experiment: Antibacterial activity against Pseudomonas aeruginosa ATCC 27853 assessed as effect on planktonic growth at 2.73 ug/ml after 20 hrs relative to control; type: functional
Staphylococcus aureus [26] = experiment: Antibacterial activity against Staphylococcus aureus ATCC 25923 assessed as effect on planktonic growth at 87.5 ug/ml after 20 hrs relative to control; type: functional
Staphylococcus aureus [27] = experiment: Antibacterial activity against Staphylococcus aureus ATCC 25923 assessed as effect on planktonic growth at 2.73 ug/ml after 20 hrs relative to control; type: functional
Pseudomonas aeruginosa [28] = experiment: Antibacterial activity against Pseudomonas aeruginosa ATCC 27853 assessed as effect on planktonic growth at 0.17 ug/ml after 20 hrs relative to control; type: functional
Streptococcus mutans [29] = experiment: Antibacterial activity against Streptococcus mutans ATCC 25175 assessed as effect on planktonic growth at 0.68 ug/ml after 20 hrs relative to control; type: functional
[30] = system: Staphylococcus epidermidis; experiment: Antibacterial activity against Staphylococcus epidermidis ATCC 35547 assessed as effect on planktonic growth at 0.34 ug/ml after 20 hrs relative to control; type: functional
[31] = system: Staphylococcus epidermidis; experiment: Antibacterial activity against Staphylococcus epidermidis ATCC 35547 assessed as effect on planktonic growth at 0.17 ug/ml after 20 hrs relative to control; type: functional
Streptococcus mutans [32] = experiment: Antibacterial activity against Streptococcus mutans ATCC 25175 assessed as effect on planktonic growth at 5.5 ug/ml after 20 hrs relative to control; type: functional
[33] = system: Staphylococcus epidermidis; experiment: Antibacterial activity against Staphylococcus epidermidis ATCC 35547 assessed as effect on planktonic growth at 43.8 ug/ml after 20 hrs relative to control; type: functional
Staphylococcus aureus [34] = experiment: Antibacterial activity against Staphylococcus aureus ATCC 25923 assessed as effect on planktonic growth at 43.8 ug/ml after 20 hrs relative to control; type: functional
Staphylococcus aureus [35] = experiment: Antibacterial activity against Staphylococcus aureus ATCC 25923 assessed as effect on planktonic growth at 0.68 ug/ml after 20 hrs relative to control; type: functional
Streptococcus mutans [36] = experiment: Antibacterial activity against Streptococcus mutans ATCC 25175 assessed as effect on planktonic growth at 10.9 ug/ml after 20 hrs relative to control; type: functional
Streptococcus mutans [37] = experiment: Antibacterial activity against Streptococcus mutans ATCC 25175 assessed as effect on planktonic growth at 21.9 ug/ml after 20 hrs relative to control; type: functional
[38] = system: Staphylococcus epidermidis; experiment: Antibacterial activity against Staphylococcus epidermidis ATCC 35547 assessed as effect on planktonic growth at 87.5 ug/ml after 20 hrs relative to control; type: functional
[39] = system: Staphylococcus epidermidis; experiment: Antibacterial activity against Staphylococcus epidermidis ATCC 35547 assessed as effect on planktonic growth at 10.9 ug/ml after 20 hrs relative to control; type: functional
[40] = system: Staphylococcus epidermidis; experiment: Antibacterial activity against Staphylococcus epidermidis ATCC 35547 assessed as inhibition of biofilm formation after 20 hrs by crystal-violet staining method; type: functional, organism-based; conditions: for IC50: ATCC 35547, 20 h
Streptococcus mutans [41] = experiment: Antibacterial activity against Streptococcus mutans ATCC 25175 assessed as effect on planktonic growth at 43.8 ug/ml after 20 hrs relative to control; type: functional
[42] = system: Staphylococcus epidermidis; experiment: Antibacterial activity against Staphylococcus epidermidis ATCC 35547 assessed as effect on planktonic growth at 21.9 ug/ml after 20 hrs relative to control; type: functional

Compound: COc1ccc(Cl)cc1C1=C(Br)C(=O)N(CC(C)C)/C1=C/c1ccccc1Br
- Activity (Streptococcus mutans [1]): -19.5%
- Activity [2]: -2.2%
- Activity (Staphylococcus aureus [3]): -6.2%
- Activity (Streptococcus mutans [4]): 6.4%
- Activity (Pseudomonas aeruginosa [5]): -14.6%
- Activity (Pseudomonas aeruginosa [6]): -9.1%
- Activity (Pseudomonas aeruginosa [7]): -18.1%
- Activity [8]: 2.7%
- Activity (Staphylococcus aureus [9]): -4.6%
- Activity [10]: -0.4%
- Activity (Pseudomonas aeruginosa [11]): -14.6%
- Activity (Streptococcus mutans [12]): -8.2%
- Activity (Streptococcus mutans [13]): -18.8%
- inhibition (Pseudomonas aeruginosa [14]): Dose-dependent effect
- IC50 (Pseudomonas aeruginosa [14]): > 87.5 µg/mL
- Activity (Staphylococcus aureus [15]): 2.7%
- Activity (Streptococcus mutans [16]): -3.3%
- Activity (Pseudomonas aeruginosa [17]): -7.5%
- Activity [18]: -3.7%
- Activity (Pseudomonas aeruginosa [19]): -3.9%
- Activity (Pseudomonas aeruginosa [20]): -5.1%
- Activity (Pseudomonas aeruginosa [21]): -5.8%
- Activity (Staphylococcus aureus [22]): -2.5%
- Activity (Staphylococcus aureus [23]): 0.2%
- Activity (Staphylococcus aureus [24]): -0.7%
- Activity (Pseudomonas aeruginosa [25]): -5.8%
- Activity (Staphylococcus aureus [26]): 3.6%
- Activity (Staphylococcus aureus [27]): 7.5%
- Activity (Pseudomonas aeruginosa [28]): -1.8%
- Activity (Streptococcus mutans [29]): -13.4%
- Activity [30]: 5.5%
- Activity [31]: 1.9%
- Activity (Streptococcus mutans [32]): 1.8%
- Activity [33]: 21.8%
- Activity (Staphylococcus aureus [34]): -4.3%
- Activity (Staphylococcus aureus [35]): 3%
- Activity (Streptococcus mutans [36]): -4.3%
- Activity (Streptococcus mutans [37]): 7%
- Activity [38]: 31.5%
- Activity [39]: -0.4%
- inhibition [40]: Dose-dependent effect
- IC50 [40]: 33.2 µg/mL (≈ 63.2 µM)
- Activity (Streptococcus mutans [41]): 1.5%
- Activity [42]: 10.6%

Compound: COc1ccc(Br)cc1C1=C(Br)C(=O)N(CC(C)C)/C1=C\c1cccc(Cl)c1
- Activity (Streptococcus mutans [1]): -1.2%
- Activity [2]: 5.6%
- Activity (Staphylococcus aureus [3]): 5.1%
- Activity (Streptococcus mutans [4]): -4%
- Activity (Pseudomonas aeruginosa [5]): -5.6%
- Activity (Pseudomonas aeruginosa [6]): 14.6%
- Activity (Pseudomonas aeruginosa [7]): -9%
- Activity [8]: 2.1%
- Activity (Staphylococcus aureus [9]): 2.4%
- Activity [10]: 9.8%
- Activity (Pseudomonas aeruginosa [11]): -4.8%
- Activity (Streptococcus mutans [12]): 2.7%
- Activity (Streptococcus mutans [13]): 6.7%
- inhibition (Pseudomonas aeruginosa [14]): Dose-dependent effect
- IC50 (Pseudomonas aeruginosa [14]): > 87.5 µg/mL
- Activity (Staphylococcus aureus [15]): -3.5%
- Activity (Streptococcus mutans [16]): -6.2%
- Activity (Pseudomonas aeruginosa [17]): -0.3%
- Activity [18]: 6.8%
- Activity (Pseudomonas aeruginosa [19]): -4.4%
- Activity (Pseudomonas aeruginosa [20]): -3.1%
- Activity (Pseudomonas aeruginosa [21]): 3%
- Activity (Staphylococcus aureus [22]): -7.2%
- Activity (Staphylococcus aureus [23]): 0.5%
- Activity (Staphylococcus aureus [24]): -1.1%
- Activity (Pseudomonas aeruginosa [25]): 0.1%
- Activity (Staphylococcus aureus [26]): 18.4%
- Activity (Staphylococcus aureus [27]): -2.7%
- Activity (Pseudomonas aeruginosa [28]): 0.6%
- Activity (Streptococcus mutans [29]): 11.4%
- Activity [30]: 6.4%
- Activity [31]: 2.2%
- Activity (Streptococcus mutans [32]): 1.5%
- Activity [33]: 84.7%
- Activity (Staphylococcus aureus [34]): 16.3%
- Activity (Staphylococcus aureus [35]): 1.1%
- Activity (Streptococcus mutans [36]): -19.1%
- Activity (Streptococcus mutans [37]): -10.1%
- Activity [38]: 72.2%
- Activity [39]: 23.2%
- inhibition [40]: Dose-dependent effect
- IC50 [40]: 31.1 µg/mL (≈ 59.2 µM)
- Activity (Streptococcus mutans [41]): -15.3%
- Activity [42]: 57.9%
